Where only a bound is given, the exact number is not on record here.

As a reminder, the IC50 is the concentration needed to halve the response being measured. Low readings indicate greater potency, high ones weaker potency.

Series [1] is described as follows: DPPH radical scavenging assay. The procedure: The DPPH assay was performed according to the method developed by Brand-Williams et al., though slightly modified. A solution of 1 mM DPPH in absolute methanol was stirred for 40 min. Absorbance of the solution was adjusted to 0.650 ± 0.020 at 517 nm using fresh absolute methanol. For replicates, the DPPH assay was performed using a microplate reader. For this, 2 µL of EA taken as a standard or sample (EA analogue) were mixed with 198 µL of DPPH solution and incubated for 30 min in the dark covered with aluminum foil. When reacting with an antioxidant, the DPPH• radical is converted into DPPH, and its color changes from purple to yellow. The antioxidant effect may be easily evaluated by observing the decrease in visible absorption. The absorbance decrease was monitored at 510 nm for 30 min with a Multiskan Ascent 96-plate reader (ThermoLabsystem, Finland). A control consisted of 2 µL of DMSO in 198 µL of DPPH solution. A similar formula (Equation (1)) was applied to determine the DPPH radical-scavenging activity.
A general note: DPPH is a stable violet radical that fades when it is reduced.

Series [2] deals with T1, Horseradish peroxidase (HRP) (Armoracia rusticana, UniProt P00433).
T1 construct: purchased Merck (Darmstadt, Germany)
T1 sequence (P00433 31-338 limits assumed): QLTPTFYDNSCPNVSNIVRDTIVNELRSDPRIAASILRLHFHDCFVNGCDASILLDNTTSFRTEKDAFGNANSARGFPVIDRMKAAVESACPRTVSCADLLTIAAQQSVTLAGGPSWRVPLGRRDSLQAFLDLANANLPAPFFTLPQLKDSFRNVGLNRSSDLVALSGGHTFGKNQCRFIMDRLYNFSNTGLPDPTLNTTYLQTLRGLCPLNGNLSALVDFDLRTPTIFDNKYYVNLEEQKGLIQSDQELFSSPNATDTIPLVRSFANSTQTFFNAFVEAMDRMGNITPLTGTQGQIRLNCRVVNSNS
As to the kind of experiment: HRP-catalyzed oxidation of L012 (chemiluminescence). It counts as biochemical. The procedure:
[…] (HRP) reacts with hydrogen peroxide (H2O2), yielding “compound I (HRP^+.-Fe (IV=O))”, which is a reactive intermediate of HRP that is able to oxidize any potential reducing agent. Briefly, 2 μL of compound or reference molecule (ellagic acid) were incubated in phosphate buffer at pH 7.4 (153 μL, 50 mM) containing 5 μL HRP (100 µg/L), 20 μL L0-12 (10^−3 M), and 20 μL H2O2 (1 mM), and the chemiluminescence was immediately measured using a Fluoroskan Ascent 96-plate reader (ThermoLabsystem, Finland) at 37 °C for 30 min [32, 34]. The analysis was conducted in a 96-well microtiter plate. All the assays were performed in triplicate and repeated at least twice (N = 2; n = 6). The relative activity in terms of inhibition percentage of the tested compound or reference (ellagic acid) was compared to a control in the presence of DMSO taken as a solvent. The inhibition percentage was calculated using a similar formula (Equation (1)) as described above.

Series [3] is described as follows: ABTS radical cation assay. The procedure:
The ABTS assay was based on the method described by Re et al.. For the generation of ABTS^•+ radicals, sodium persulfate (2.45 mM) aqueous solution was mixed with ABTS (7 mM) and incubated overnight in the dark to obtain a dark-colored solution. Stock solution of ABTS^•+ was then diluted by adding pure methanol (100%) to obtain an absorbance of 0.70 (±0.02) at 734 nm at 30 °C. To obtain more repetition, the ABTS assay was performed using a microplate reader (ThermoLabsystem, Finland). An aliquot of 2 µL of the tested compound (EA or analogue) was added to 198 µL of ABTS^•+, and the decrease in absorbance was monitored at 740 nm after 30 min [32]. During this reaction, the blue-green ABTS radical cation is converted back into its colorless neutral form in the presence of the potential antioxidant molecule. A control consisted of 2 µL of DMSO in 198 µL of ABTS^•+ solution. The reducing capacity was determined according to the formula:% inhibition = (Acontrol − ASample) × 100/AControl(1)

For series [4], the target named is T2, human myeloperoxidase (MPO) (Homo sapiens, UniProt P05164).
T2 construct: purchased Calbiochem Millipore
T2 sequence (P05164 49-745): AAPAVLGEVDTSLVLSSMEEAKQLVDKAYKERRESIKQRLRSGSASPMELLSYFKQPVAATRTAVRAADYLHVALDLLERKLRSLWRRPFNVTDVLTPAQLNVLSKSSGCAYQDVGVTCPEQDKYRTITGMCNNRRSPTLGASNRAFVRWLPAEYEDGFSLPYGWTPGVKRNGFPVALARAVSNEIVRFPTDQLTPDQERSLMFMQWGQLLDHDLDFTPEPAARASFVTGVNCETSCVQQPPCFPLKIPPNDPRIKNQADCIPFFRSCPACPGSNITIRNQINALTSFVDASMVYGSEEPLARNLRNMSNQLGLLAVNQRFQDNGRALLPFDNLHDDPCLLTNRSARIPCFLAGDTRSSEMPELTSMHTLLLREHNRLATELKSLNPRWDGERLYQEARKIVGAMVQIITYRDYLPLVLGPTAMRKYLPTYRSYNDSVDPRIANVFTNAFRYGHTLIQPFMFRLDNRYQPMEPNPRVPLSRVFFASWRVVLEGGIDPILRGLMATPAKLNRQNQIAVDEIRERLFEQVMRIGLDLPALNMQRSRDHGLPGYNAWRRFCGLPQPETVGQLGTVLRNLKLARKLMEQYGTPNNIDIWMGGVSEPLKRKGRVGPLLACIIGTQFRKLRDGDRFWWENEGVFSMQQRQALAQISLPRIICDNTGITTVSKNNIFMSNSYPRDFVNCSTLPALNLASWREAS
As to the kind of experiment: MPO peroxidase activity, classical assay (Amplex Red). It counts as biochemical. The following applies: concentration range 0.01 to 10 µM. The procedure:
(§1) Measurement of the peroxidase activity of MPO was performed by a classical enzymatic assay and by SIEFED assay as described by Nyssen et al.. The MPO solution was prepared with purified human MPO in dilution buffer (PBS 20 mM at pH 7.4 with 5 g/L BSA and 0.1% Tween-20). The solutions of EA or analogue, at final concentrations ranging from 10^−8 M to 10^−5 M, were incubated for 10 min with human MPO at a final concentration of 5 mU/mL before further use. The revelation of MPO activity was performed by monitoring the enzyme-catalyzed oxidation of Amplex Red in the presence of H2O2 (10 μM) and nitrite (4.5 mM) in phosphate buffer at pH 7.4.
After incubation, mixtures containing 100 μL of EA/analogue or vehicle (DMSO) and MPO were loaded into wells of microtiter plates (transparent), and the peroxidase activity was measured by adding 10 μL sodium nitrite solution (4.5 mM, final concentration) and 100 μL of the reactional solution containing 10 µM H2O2 and 40 µM Amplex® Red (AR) in phosphate buffer (50 mM) at pH 7.4. The oxidation of AR into the fluorescent resorufin adduct (λexcitation = 544 nm; λemission = 590 nm) was monitored for 30 min at 37 °C with a fluorescent plate reader (Fluoroskan Ascent, Fisher Scientific, Hampton, NH, USA). To eliminate the possibility of the artifact reactions that might arise from MPO activity or its natural substrate (H2O2), the direct reaction of ellagic acid or an analogue with H2O2 was performed in phosphate buffer (PBS) without the addition of human MPO.

Series [5] deals with T2, human myeloperoxidase (MPO). In words: MPO activity by SIEFED assay. It counts as biochemical. How it is done: as §1
Samples with MPO and various concentrations of […] were prepared and incubated as with the classical assay. An amount of 100 μL of each mixture (MPO alone or MPO + EA/DMSO) was then loaded into the wells of a SIEFED microtiter plate coated with rabbit polyclonal antibodies (3 μg/mL) against human MPO and incubated for 2 h at 37 °C in darkness. After washing up the wells, the activity of the enzyme captured by the antibodies was measured by adding 10 μL sodium nitrite solution (4.5 mM, final concentration) and 100 μL of a reactional solution containing 10 μM H2O2 and 40 μM Amplex® in phosphate buffer (50 mM) at pH 7.4. The oxidation of Amplex® Red into the fluorescent adduct resorufin (λexcitation = 544 nm; λemission = 590 nm) was monitored for 30 min at 37 °C with a fluorescent plate reader (Fluoroskan Ascent, Fisher Scientific). As for the MPO direct assay, a control assay set as the relative value of MPO activity was performed with purified MPO in the presence of PBS instead of the samples of EA or analogue dissolved in DMSO. In this SIEFED assay, MPO was bonded by the antibodies into the wells, and EA/analogue was discarded in the washing step before starting the measurement of the enzymatic activity. For both MPO assays, the inhibition percentage was calculated using a similar formula (Equation (1)) as described above.

On the set-up of series [6]: method as in PMID 19015354. The following applies: after intraperitoneal injection; cited from earlier work.
The conditions of series [7]: in mice; cited from earlier work.
The nature of another series: Solubility. The series is classed as physicochemical.

As to `O=C(OCCOC(=O)c1cc(O)c(O)c(O)c1)c1cc(O)c(O)c(O)c1` [compound 4], the figures for the IC50 in series [1], in series [2] and in series [3] were 3.36 ± 0.25 µM, 2.84 µM and 5.77 ± 0.01 µM, respectively.
The like results for `O=C(OCCCCOC(=O)c1cc(O)c(O)c(O)c1)c1cc(O)c(O)c(O)c1` [compound 8] were, in that order, 5.96 ± 0.06 µM, 1.48 ± 1.17 µM and 6.97 ± 0.04 µM.
The corresponding values for `O=C(OCCCOC(=O)c1cc(O)c(O)c(O)c1)c1ccc(O)c(O)c1` [compound 5, 3-((3,4-dihydroxybenzoyl)oxy)propyl 3,4,5-trihydroxybenzoate] are 4.24 ± 0.36 µM, 3.73 ± 0.21 µM and 5.48 ± 0.23 µM.
The corresponding values for `O=C(NCCCOC(=O)c1cc(O)c(O)c(O)c1)c1cc(O)c(O)c(O)c1` [compound 9, 3-(3,4,5-trihydroxybenzamido) propyl 3,4,5-trihydroxybenzoate] are 5.82 ± 0.35 µM, 1.81 ± 0.18 µM and 6.34 ± 0.39 µM.
For `O=C(OCCCOC(=O)c1cc(O)c(O)c(O)c1)c1cc(O)cc(O)c1` [compound 3, 3-((3,5-dihydroxybenzoyl)oxy)propyl 3,4,5-trihydroxybenzoate], the half-inhibitory concentration (IC50) in series [1] stood at 5.78 ± 0.13 µM; in series [2] it was 3.19 ± 0.07 µM; in series [3], 5.52 ± 0.34 µM. Besides, the “MPO inhibition (classical assay)” value in series [4] is 98%.
Take `O=C(NCCCNC(=O)c1cc(O)c(O)c(O)c1)c1cc(O)c(O)c(O)c1` [compound 12]: the IC50 in series [1] worked out at 3.7 ± 0.45 µM; in series [2] it was 3.06 ± 0.07 µM; in series [3] it was 5.86 ± 0.18 µM. The “HRP inhibiting activity (in words)” value in series [2] was “very good inhibition”.
With `O=C(Nc1cccc(OC(=O)c2cc(O)c(O)c(O)c2)c1)c1cc(O)c(O)c(O)c1` [compound 10, 3-(3,4,5-trihydroxybenzamido)phenyl 3,4,5-trihydroxybenzoate], in series [5], the “MPO activity, SIEFED assay (in words)” value is “superior to ellagic acid”. Further, the 50% inhibitory concentration (IC50) in series [1] came to 5.27 ± 0.29 µM; in series [2] it was 1.02 ± 0.09 µM; in series [3] it was 6.22 ± 0.16 µM.
As to `O=C(OCCCOC(=O)c1cc(O)c(O)c(O)c1)c1ccccc1` [compound 13, 3-(benzoyloxy)propyl 3,4,5-trihydroxybenzoate], the IC50 stood at 4.91 ± 0.26 µM in series [1], 5.46 ± 0.01 µM in series [2] and 6 ± 0.31 µM in series [3].
With `O=C(Nc1ccc(OC(=O)c2cc(O)c(O)c(O)c2)cc1)c1cc(O)c(O)c(O)c1` [compound 7, 4-(3,4,5-trihydroxybenzamido)phenyl 3,4,5-trihydroxybenzoate], in series [5], the “MPO activity, SIEFED assay (in words)” value is listed as “superior to ellagic acid”. For the same compound, the IC50 in series [1] is 3.14 ± 0.72 µM; in series [2], 5.81 ± 0.49 µM; in series [3] it was 4.68 ± 0.13 µM. The “MPO inhibition (classical assay)” value in series [4] worked out at 94%. Besides, the “HRP inhibiting activity (in words)” value in series [2] is given as “reduced antioxidant effect”.
Consider `O=c1oc2c(O)c(O)cc3c(=O)oc4c(O)c(O)cc1c4c23` [1a, 2,3,7,8-Tetrahydroxy [1]benzopyrano [5,4,3-cde][1]benzopyran-5,10-dione, reference compound], for which the 50% inhibitory concentration (IC50) in series [1] stood at 5.64 ± 0.47 µM; in series [3], 6.01 ± 0.26 µM. For the same compound, the “curative activity in vivo (in words)” value in series [6] is reported as “curative activity in vivo”. For the same compound, the oral bioavailability in series [7] is given as < 30%. Besides, the “solubility (in words)” value in the series “Solubility” is given as “low hydrosolubility”. For the same compound, the “HRP inhibiting activity (in words)” value in series [2] is recorded as “strong inhibiting activity”.
Consider `O=C(OCCCOC(=O)c1cc(O)c(O)c(O)c1)c1cc(O)c(O)c(O)c1` [compound 2], for which the IC50 in series [1] is 2.86 ± 0.13 µM; in series [2] it was 2.28 ± 0.11 µM; in series [3], 5.5 ± 0.16 µM.

(Values after article PMC10254444, “Targeting Myeloperoxidase Activity and Neutrophil ROS Production to Modulate Redox Process: Effect of Ellagic Acid and Analogues” (Molecules, 2023).)
